Tests used:
Assay type in all cases: in vivo
[1] = test system: wheat (Triticum aestivum); experiment: Test A pre-/postemergence plant response
Source text: (§1) Seeds of barnyardgrass (Echinochloa crus-galli), large crabgrass (Digitaria sanguinalis), giant foxtail (Setaria faberii), morningglory (Ipomoea spp.), pigweed (Amaranthus retroflexus), velvetleaf (Abutilon theophrasti), wheat (Triticum aestivum) and corn (Zea mays) were planted into a blend of loam soil and sand and treated preemergence with a directed soil spray using test chemicals formulated in a non-phytotoxic solvent mixture which included a surfactant. At the same time these species were also treated with postemergence applications of test compounds formulated in the same manner.
(§2) Plants ranged in height from two to ten cm and were in the one- to two-leaf stage for the postemergence treatment. Treated plants and untreated controls were maintained in a greenhouse for approximately ten days, after which time all treated plants were compared to untreated controls and visually evaluated for injury. Plant response ratings, summarized in Table A, are based on a 0 to 100 scale where 0 is no effect and 100 is complete control. A dash (-) response means no test result.

[2] = test system: velvetleaf (Abutilon theophrasti); experiment: Test A pre-/postemergence plant response
Source text: as §1, §2

[3] = test system: corn (Zea mays); experiment: Test A pre-/postemergence plant response
Source text: as §1, §2

[4] = test system: large crabgrass (Digitaria sanguinalis); experiment: Test A pre-/postemergence plant response
Source text: as §1, §2

[5] = test system: barnyardgrass (Echinochloa crus-galli); experiment: Test A pre-/postemergence plant response
Source text: as §1, §2

[6] = test system: pigweed (Amaranthus retroflexus); experiment: Test A pre-/postemergence plant response
Source text: as §1, §2

[7] = test system: giant foxtail (Setaria faberii); experiment: Test A pre-/postemergence plant response
Source text: as §1, §2

[8] = test system: morningglory (Ipomoea spp.); experiment: Test A pre-/postemergence plant response
Source text: as §1, §2

[9] = test system: barnyardgrass (Echinochloa crus-galli); experiment: Test B flooded paddy test; settings: for Plant response rating, Flood, Barnyardgrass: 250 g ai/ha, flooded paddy test, visual rating on 0 to 100 scale (0 no effect, 100 complete control) after 13 to 15 days; for Plant response rating, Barnyardgrass: Flood (flooded paddy test), 13 to 15 days
Source text: (§3) Plant species in the flooded paddy test consisted of rice (Oryza sativa), umbrella sedge (Cyperus difformis), ducksalad (Heteranthera limosa) and barnyardgrass (Echinochloa crus-galli) grown to the 2-leaf stage for testing. At the time of treatment, test pots were flooded with water to 3 cm above the soil surface, treated by application of test compounds directly to the paddy water, and then maintained at that water depth for the duration of the test.
(§4) Treated plants and controls were maintained in a greenhouse for 13 to 15 days, after which time all treated plants were visually evaluated and compared to controls. Plant response ratings, summarized in Table B, are based on a scale of 0 to 100 where 0 is no effect and 100 is complete control. A dash (-) response means no test result.

[10] = test system: rice (Oryza sativa); experiment: Test B flooded paddy test; settings: for Plant response rating, Flood, Rice: 250 g ai/ha, flooded paddy test, visual rating on 0 to 100 scale (0 no effect, 100 complete control) after 13 to 15 days; for Plant response rating, Rice: Flood (flooded paddy test), 13 to 15 days
Source text: as §3, §4

[11] = test system: umbrella sedge (Cyperus difformis); experiment: Test B flooded paddy test; settings: for Plant response rating, Flood, Sedge, Umbrella: 250 g ai/ha, flooded paddy test, visual rating on 0 to 100 scale (0 no effect, 100 complete control) after 13 to 15 days; for Plant response rating, Sedge, Umbrella: Flood (flooded paddy test), 13 to 15 days
Source text: as §3, §4

[12] = test system: ducksalad (Heteranthera limosa); experiment: Test B flooded paddy test; settings: for Plant response rating, Flood, Ducksalad: 250 g ai/ha, flooded paddy test, visual rating on 0 to 100 scale (0 no effect, 100 complete control) after 13 to 15 days; for Plant response rating, Ducksalad: Flood (flooded paddy test), 13 to 15 days
Source text: as §3, §4

[13] = Postemergence, 125 g ai/ha, visual injury, 0 to 100 scale (0 no effect, 100 complete control), approx. ten days
[14] = Postemergence, 500 g ai/ha, 0 to 100 scale, 0 = no effect, 100 = complete control, approx. ten days
[15] = Preemergence, 125 g ai/ha, 0 to 100 scale, 0 = no effect, 100 = complete control
[16] = Preemergence, 500 g ai/ha, visual injury, 0 to 100 scale (0 no effect, 100 complete control), approx. ten days
[17] = 62 g ai/ha, scale 0 to 100, 0 is no effect, 100 is complete control
[18] = 31 g ai/ha, scale of 0 to 100 where 0 is no effect and 100 is complete control
[19] = 62 g ai/ha, scale of 0 to 100 where 0 is no effect and 100 is complete control
[20] = 125 g ai/ha, scale 0 to 100, 0 is no effect, 100 is complete control

Compound: Cc1ccc(-n2c(-c3ccccc3)ncc(C(=O)C3=C(O)CCCC3=O)c2=O)cc1C [Compound 32]
- Wheat plant response rating [1, 13]: 0
- Plant response rating, Wheat [1, 14]: 30
- Plant response rating, Wheat [1, 15]: 0
- Plant response rating, Wheat [1, 16]: 20
- Velvetleaf plant response rating [2, 13]: 100
- Plant response rating, Velvetleaf [2, 14]: 100
- Plant response rating, Velvetleaf [2, 15]: 20
- Plant response rating, Velvetleaf [2, 16]: 70
- Corn plant response rating [3, 13]: 0
- Plant response rating, Corn [3, 14]: 10
- Plant response rating, Corn [3, 15]: 0
- Plant response rating, Corn [3, 16]: 0
- Crabgrass, Large plant response rating [4, 13]: 50
- Plant response rating, Crabgrass, Large [4, 14]: 90
- Plant response rating, Crabgrass, Large [4, 15]: 20
- Plant response rating, Crabgrass, Large [4, 16]: 90
- Barnyardgrass plant response rating [5, 13]: 20
- Plant response rating, Barnyardgrass [5, 14]: 80
- Plant response rating, Barnyardgrass [5, 15]: 0
- Plant response rating, Barnyardgrass [5, 16]: 90
- Pigweed plant response rating [6, 13]: 100
- Plant response rating, Pigweed [6, 14]: 100
- Plant response rating, Pigweed [6, 15]: 30
- Plant response rating, Pigweed [6, 16]: 100
- Foxtail, Giant plant response rating [7, 13]: 30
- Plant response rating, Foxtail, Giant [7, 14]: 90
- Plant response rating, Foxtail, Giant [7, 15]: 10
- Plant response rating, Foxtail, Giant [7, 16]: 90
- Morningglory plant response rating [8, 13]: 50
- Plant response rating, Morningglory [8, 14]: 100
- Plant response rating, Morningglory [8, 15]: 0
- Plant response rating, Morningglory [8, 16]: 80
- Plant response rating, Flood, Barnyardgrass [9]: 40
- Plant response rating, Barnyardgrass [9, 17]: 10
- Plant response rating, Flood, Rice [10]: 30
- Plant response rating, Rice [10, 17]: 0
- Plant response rating, Flood, Sedge, Umbrella [11]: 90
- Plant response rating, Sedge, Umbrella [11, 17]: 75
- Plant response rating, Flood, Ducksalad [12]: 95
- Plant response rating, Ducksalad [12, 17]: 75

Compound: Cc1ccc(-n2c(-c3ccccc3)ncc(C(=O)C3=C(O)CCCC3=O)c2=O)c(Cl)c1 [Compound 41]
- Wheat plant response rating [1, 13]: 0
- Plant response rating, Wheat [1, 14]: 0
- Plant response rating, Wheat [1, 15]: 0
- Plant response rating, Wheat [1, 16]: 0
- Velvetleaf plant response rating [2, 13]: 100
- Plant response rating, Velvetleaf [2, 14]: 100
- Plant response rating, Velvetleaf [2, 15]: 30
- Plant response rating, Velvetleaf [2, 16]: 80
- Corn plant response rating [3, 13]: 0
- Plant response rating, Corn [3, 14]: 10
- Plant response rating, Corn [3, 15]: 0
- Plant response rating, Corn [3, 16]: 0
- Crabgrass, Large plant response rating [4, 13]: 20
- Plant response rating, Crabgrass, Large [4, 14]: 70
- Plant response rating, Crabgrass, Large [4, 15]: 20
- Plant response rating, Crabgrass, Large [4, 16]: 80
- Barnyardgrass plant response rating [5, 13]: 50
- Plant response rating, Barnyardgrass [5, 14]: 90
- Plant response rating, Barnyardgrass [5, 15]: 0
- Plant response rating, Barnyardgrass [5, 16]: 80
- Pigweed plant response rating [6, 13]: 100
- Plant response rating, Pigweed [6, 14]: 100
- Plant response rating, Pigweed [6, 15]: 90
- Plant response rating, Pigweed [6, 16]: 90
- Foxtail, Giant plant response rating [7, 13]: 20
- Plant response rating, Foxtail, Giant [7, 14]: 80
- Plant response rating, Foxtail, Giant [7, 15]: 10
- Plant response rating, Foxtail, Giant [7, 16]: 30
- Morningglory plant response rating [8, 13]: 10
- Plant response rating, Morningglory [8, 14]: 70
- Plant response rating, Morningglory [8, 15]: 0
- Plant response rating, Morningglory [8, 16]: 20
- Plant response rating, Flood, Barnyardgrass [9]: 30
- Plant response rating, Barnyardgrass [9, 17]: 0
- Plant response rating, Flood, Rice [10]: 0
- Plant response rating, Rice [10, 17]: 0
- Plant response rating, Flood, Sedge, Umbrella [11]: 80
- Plant response rating, Sedge, Umbrella [11, 17]: 70
- Plant response rating, Flood, Ducksalad [12]: 75
- Plant response rating, Ducksalad [12, 17]: 70

Compound: Cc1cc(Cl)ccc1-n1c(-c2ccccc2)ncc(C(=O)C2=C(O)CCCC2=O)c1=O [Compound 43]
- Wheat plant response rating [1, 13]: 0
- Plant response rating, Wheat [1, 14]: 0
- Plant response rating, Wheat [1, 15]: 0
- Plant response rating, Wheat [1, 16]: 0
- Velvetleaf plant response rating [2, 13]: 100
- Plant response rating, Velvetleaf [2, 14]: 100
- Plant response rating, Velvetleaf [2, 15]: 60
- Plant response rating, Velvetleaf [2, 16]: 100
- Corn plant response rating [3, 13]: 0
- Plant response rating, Corn [3, 14]: 50
- Plant response rating, Corn [3, 15]: 0
- Plant response rating, Corn [3, 16]: 0
- Crabgrass, Large plant response rating [4, 13]: 70
- Plant response rating, Crabgrass, Large [4, 14]: 90
- Plant response rating, Crabgrass, Large [4, 15]: 50
- Plant response rating, Crabgrass, Large [4, 16]: 100
- Barnyardgrass plant response rating [5, 13]: 70
- Plant response rating, Barnyardgrass [5, 14]: 90
- Plant response rating, Barnyardgrass [5, 15]: 10
- Plant response rating, Barnyardgrass [5, 16]: 80
- Pigweed plant response rating [6, 13]: 100
- Plant response rating, Pigweed [6, 14]: 100
- Plant response rating, Pigweed [6, 15]: 90
- Plant response rating, Pigweed [6, 16]: 100
- Foxtail, Giant plant response rating [7, 13]: 60
- Plant response rating, Foxtail, Giant [7, 14]: 80
- Plant response rating, Foxtail, Giant [7, 15]: 10
- Plant response rating, Foxtail, Giant [7, 16]: 70
- Morningglory plant response rating [8, 13]: 20
- Plant response rating, Morningglory [8, 14]: 80
- Plant response rating, Morningglory [8, 15]: 0
- Plant response rating, Morningglory [8, 16]: 10
- Plant response rating, Flood, Barnyardgrass [9]: 20
- Plant response rating, Barnyardgrass [9, 17]: 20
- Plant response rating, Flood, Rice [10]: 40
- Plant response rating, Rice [10, 17]: 0
- Plant response rating, Flood, Sedge, Umbrella [11]: 80
- Plant response rating, Sedge, Umbrella [11, 17]: 30
- Plant response rating, Flood, Ducksalad [12]: 80
- Plant response rating, Ducksalad [12, 17]: 70

Compound: CC(C)c1ncc(C(=O)C2=C(O)CCCC2=O)c(=O)n1-c1ccccc1 [Compound 60]
- Wheat plant response rating [1, 13]: 20
- Plant response rating, Wheat [1, 14]: 50
- Plant response rating, Wheat [1, 15]: 0
- Plant response rating, Wheat [1, 16]: 40
- Velvetleaf plant response rating [2, 13]: 100
- Plant response rating, Velvetleaf [2, 14]: 100
- Plant response rating, Velvetleaf [2, 15]: 80
- Plant response rating, Velvetleaf [2, 16]: 100
- Corn plant response rating [3, 13]: 0
- Plant response rating, Corn [3, 14]: 10
- Plant response rating, Corn [3, 15]: 0
- Plant response rating, Corn [3, 16]: 10
- Crabgrass, Large plant response rating [4, 13]: 90
- Plant response rating, Crabgrass, Large [4, 14]: 100
- Plant response rating, Crabgrass, Large [4, 15]: 90
- Plant response rating, Crabgrass, Large [4, 16]: 100
- Barnyardgrass plant response rating [5, 13]: 60
- Plant response rating, Barnyardgrass [5, 14]: 90
- Plant response rating, Barnyardgrass [5, 15]: 60
- Plant response rating, Barnyardgrass [5, 16]: 90
- Pigweed plant response rating [6, 13]: 100
- Plant response rating, Pigweed [6, 14]: 100
- Plant response rating, Pigweed [6, 15]: 90
- Plant response rating, Pigweed [6, 16]: 100
- Foxtail, Giant plant response rating [7, 13]: 80
- Plant response rating, Foxtail, Giant [7, 14]: 90
- Plant response rating, Foxtail, Giant [7, 15]: 60
- Plant response rating, Foxtail, Giant [7, 16]: 90
- Morningglory plant response rating [8, 13]: 60
- Plant response rating, Morningglory [8, 14]: 90
- Plant response rating, Morningglory [8, 16]: 80
- Plant response rating, Flood, Barnyardgrass [9]: 40
- Plant response rating, Barnyardgrass [9, 18]: 0
- Plant response rating, Barnyardgrass [9, 19]: 0
- Plant response rating, Barnyardgrass [9, 20]: 30
- Plant response rating, Flood, Rice [10]: 15
- Plant response rating, Rice [10, 18]: 0
- Plant response rating, Rice [10, 19]: 0
- Plant response rating, Rice [10, 20]: 0
- Plant response rating, Flood, Sedge, Umbrella [11]: 85
- Plant response rating, Sedge, Umbrella [11, 18]: 0
- Plant response rating, Sedge, Umbrella [11, 19]: 30
- Plant response rating, Sedge, Umbrella [11, 20]: 75
- Plant response rating, Flood, Ducksalad [12]: 60
- Plant response rating, Ducksalad [12, 18]: 0
- Plant response rating, Ducksalad [12, 19]: 0
- Plant response rating, Ducksalad [12, 20]: 40
